Results: patent US8067445B2, “N,N-disubstituted aminoalkylbiphenyl antagonists of prostaglandin D2 receptors” (Panmira Pharmaceuticals, LLC, priority 2008, dated 2011)

Key:
human DP1 receptor = target: T1, human DP1 receptor (Homo sapiens, UniProt Q13258); experiment: DP1 radioligand binding assay ([3H]BWA868C, platelet membranes); conditions: [3H]BWA868C binding, human platelet membranes; read-out: hDP1
T1 construct: tissue Biological Specialty Corporation; host or cells: human platelet membranes
T1 sequence (Q13258 1-359): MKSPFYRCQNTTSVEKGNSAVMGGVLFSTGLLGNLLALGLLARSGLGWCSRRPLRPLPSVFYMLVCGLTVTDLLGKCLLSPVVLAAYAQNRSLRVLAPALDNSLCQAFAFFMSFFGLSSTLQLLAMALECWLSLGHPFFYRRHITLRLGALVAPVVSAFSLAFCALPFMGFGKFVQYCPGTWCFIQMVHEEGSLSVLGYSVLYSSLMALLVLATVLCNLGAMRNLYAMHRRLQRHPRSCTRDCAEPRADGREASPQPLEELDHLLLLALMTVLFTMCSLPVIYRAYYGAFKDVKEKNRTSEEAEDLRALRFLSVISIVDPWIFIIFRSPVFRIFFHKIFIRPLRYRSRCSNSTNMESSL
In short: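 Human platelet membranes (20 μg protein/well) incubated 60 min at room temperature with 2 nM [3H]BWA868C and compound in 50 mM Hepes, 10 mM MnCl2, 1 mM EDTA, pH 7.4, ± 0.2% human serum albumin. Bound radioactivity measured after filtration; nonspecific binding defined with 10 μM BWA868C; IC50 from titration curves.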

human DP2 receptor = target: T2, human DP2 receptor (Homo sapiens, UniProt Q9Y5Y4); experiment: DP2/CRTH2 radioligand binding assay ([3H]PGD2); conditions: [3H]PGD2 binding, membranes of HEK293 cells expressing human DP2; read-out: hDP2
T2 construct: expressed in transfected cells
T2 sequence (Q9Y5Y4 1-395): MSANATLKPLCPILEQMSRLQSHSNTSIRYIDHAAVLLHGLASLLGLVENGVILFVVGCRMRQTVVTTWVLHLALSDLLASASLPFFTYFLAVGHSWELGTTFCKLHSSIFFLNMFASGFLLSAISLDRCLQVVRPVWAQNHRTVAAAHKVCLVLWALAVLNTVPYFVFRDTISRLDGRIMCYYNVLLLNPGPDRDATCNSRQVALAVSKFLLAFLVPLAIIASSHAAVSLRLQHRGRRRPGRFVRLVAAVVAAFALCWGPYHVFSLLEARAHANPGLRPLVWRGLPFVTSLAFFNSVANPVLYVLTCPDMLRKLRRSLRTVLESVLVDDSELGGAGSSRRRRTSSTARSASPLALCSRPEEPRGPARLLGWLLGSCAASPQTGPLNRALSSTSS
In short: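 Membranes from HEK293 cells stably expressing recombinant human DP2 incubated 60 min at room temperature with 1 nM [3H]PGD2 and compound in pH 7.4 Hepes/MnCl2/EDTA buffer, ± 0.2% human serum albumin. Bound radioactivity measured after filtration; non-specific binding defined with 10 μM PGD2. IC50 from titration curves.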

SMILES | IC50 (human DP1 receptor) [µM] | IC50 (human DP2 receptor) [µM]
CCN(Cc1cc(C(F)(F)F)ccc1-c1cc(CC(=O)O)ccc1OC)C(=O)Cn1ccnc1C [Compound 1-149, [2′-({Ethyl-[2-(2-methyl-imidazol-1-yl)-acetyl]-amino}-methyl)-6-methoxy-4′-trifluoromethyl-biphenyl-3-yl]-acetic acid] | 1 to 30 | < 0.3
CCN(Cc1cc(C(F)(F)F)ccc1-c1cc(CC(=O)O)ccc1OC)C(=O)Cn1cncn1 [Compound 1-150, (2′-{[Ethyl-(2-[1,2,4]triazol-1-yl-acetyl)-amino]-methyl}-6-methoxy-4′-trifluoromethyl-biphenyl-3-yl)-acetic acid] | 1 to 30 | 0.3 to 1
CCN(Cc1cc(C(F)(F)F)ccc1-c1cc(CC(=O)O)ccc1OC)C(=O)CN1CCCC1 [Compound 1-151, (2′-{[Ethyl-(2-pyrrolidin-1-yl-acetyl)-amino]-methyl}-6-methoxy-4′-trifluoromethyl-biphenyl-3-yl)-acetic acid] | 1 to 30 | 1 to 30
CCN(Cc1cc(NC(=O)c2ccc(Cl)cc2)ccc1-c1cc(CC(=O)O)ccc1OC)C(=O)OCc1ccccc1 [Compound 1-154, [2′-[(Benzyloxycarbonyl-ethyl-amino)-methyl]-4′-(4-chloro-benzoylamino)-6-methoxy-biphenyl-3-yl]-acetic acid] | 1 to 30 | < 0.3
CCN(Cc1cc(NS(=O)(=O)c2ccc(Cl)cc2)ccc1-c1cc(CC(=O)O)ccc1OC)C(=O)OCc1ccccc1 [Compound 1-156, [2′-[(Benzyloxycarbonyl-ethyl-amino)-methyl]-4′-(4-chloro-benzenesulfonylamino)-6-methoxy-biphenyl-3-yl]-acetic acid] | 1 to 30 | < 0.3
CCN(Cc1cc(C(F)(F)F)ccc1-c1cc(Cl)cc(CC(=O)O)c1)C(=O)NCc1ccccc1 [Compound 1-157, [2′-(3-Benzyl-1-ethyl-ureidomethyl)-5-chloro-4′-trifluoromethyl-biphenyl-3-yl]-acetic acid] | 1 to 30 | < 0.3
CCN(Cc1cc(C(F)(F)F)ccc1-c1cc(CC(=O)O)cc(C(F)(F)F)c1)C(=O)NCc1ccccc1 [Compound 1-158, [2′-(3-Benzyl-1-ethyl-ureidomethyl)-5,4′-bis-trifluoromethyl-biphenyl-3-yl]-acetic acid] | 1 to 30 | < 0.3
CCN(Cc1cc(C(F)(F)F)ccc1-c1cc(F)cc(CC(=O)O)c1)C(=O)NCc1ccccc1 [Compound 1-159, [2′-(3-Benzyl-1-ethyl-ureidomethyl)-5-fluoro-4′-trifluoromethyl-biphenyl-3-yl]-acetic acid] | 1 to 30 | < 0.3
CCN(Cc1cc(C(F)(F)F)ccc1-c1cc(CC(=O)O)cc(C(F)(F)F)c1)C(=O)OC [Compound 1-163, {2′-[(Ethyl-methoxycarbonyl-amino)-methyl]-5,4′-bis-trifluoromethyl-biphenyl-3-yl}-acetic acid] | 1 to 30 | < 0.3
CCN(Cc1cc(C(F)(F)F)ccc1-c1cc(Cl)cc(CC(=O)O)c1)C(=O)OC [Compound 1-164, {5-Chloro-2′-[(ethyl-methoxycarbonyl-amino)-methyl]-4′-trifluoromethyl-biphenyl-3-yl}-acetic acid] | 1 to 30 | < 0.3
CCN(Cc1ccc(C(F)(F)F)cc1-c1cc(CC(=O)O)ccc1OC)C(=O)OCc1ccc(F)cc1 [Compound 1-168, (2′-{[Ethyl-(4-fluoro-benzyloxycarbonyl)-amino]-methyl}-6-methoxy-5′-trifluoromethyl-biphenyl-3-yl)-acetic acid] | 0.3 to 1 | < 0.3
CCN(Cc1ccc(C)cc1-c1cc(CC(=O)O)ccc1OC)C(=O)OCc1ccc(F)cc1 [Compound 1-169, (2′-{[Ethyl-(4-fluoro-benzyloxycarbonyl)-amino]-methyl}-6-methoxy-5′-methyl-biphenyl-3-yl)-acetic acid] | 1 to 30 | < 0.3
CCN(Cc1ccc(C(F)(F)F)cc1-c1cc(CC(=O)O)ccc1OC)C(=O)C1CC1 [Compound 1-170, {2′-[(Cyclopropanecarbonyl-ethyl-amino)-methyl]-6-methoxy-5′-trifluoromethyl-biphenyl-3-yl}-acetic acid] | 1 to 30 | < 0.3
CCN(Cc1ccc(C)cc1-c1cc(CC(=O)O)ccc1OC)C(=O)C1CC1 [Compound 1-171, {2′-[(Cyclopropanecarbonyl-ethyl-amino)-methyl]-6-methoxy-5′-methyl-biphenyl-3-yl}-acetic acid] | 1 to 30 | < 0.3
CCN(Cc1ccc(C(F)(F)F)cc1-c1cc(CC(=O)O)ccc1OC)C(=O)NCc1ccccc1 [Compound 1-172, [2′-(3-Benzyl-1-ethyl-ureidomethyl)-6-methoxy-5′-trifluoromethyl-biphenyl-3-yl]-acetic acid] | 1 to 30 | < 0.3
CCN(Cc1ccc(C)cc1-c1cc(CC(=O)O)ccc1OC)C(=O)NCc1ccccc1 [Compound 1-173, [2′-(3-Benzyl-1-ethyl-ureidomethyl)-6-methoxy-5′-methyl-biphenyl-3-yl]-acetic acid] | 1 to 30 | < 0.3
CCN(Cc1ccc(C(F)(F)F)cc1-c1cc(CC(=O)O)ccc1OC)C(=O)OCc1ccc(Cl)cc1 [Compound 1-174, (2′-{[(4-Chloro-benzyloxycarbonyl)-ethyl-amino]-methyl}-6-methoxy-5′-trifluoromethyl-biphenyl-3-yl)-acetic acid] | 0.3 to 1 | < 0.3
CCN(Cc1ccc(C)cc1-c1cc(CC(=O)O)ccc1OC)C(=O)OCc1ccc(Cl)cc1 [Compound 1-175, (2′-{[(4-Chloro-benzyloxycarbonyl)-ethyl-amino]-methyl}-6-methoxy-5′-methyl-biphenyl-3-yl)-acetic acid] | 0.3 to 1 | < 0.3
CCN(Cc1cc(C(F)(F)F)ccc1-c1cc(CC(=O)O)ccc1OC)C(=O)NC1CC1 [Compound 1-182] | 1 to 30 | < 0.3

Results, then the compound that gave them:

IC50 (human DP1 receptor) [µM] | IC50 (human DP2 receptor) [µM] | SMILES
1 to 30 | 1 to 30 | CCN(Cc1cc(C(F)(F)F)ccc1-c1cc(CC(C)(C)O)ccc1OC)C(C)=O [Compound 2-2, N-Ethyl-N-[5′-(2-hydroxy-2-methyl-propyl)-2′-methoxy-4-trifluoromethyl-biphenyl-2-ylmethyl]-acetamide]
1 to 30 | > 30 | CCN(Cc1cc(C(F)(F)F)ccc1-c1cc(CC#N)ccc1OC)C(=O)C1CC1 [Compound 2-3, Cyclopropanecarboxylic acid (5′-cyanomethyl-2′-methoxy-4-trifluoromethyl-biphenyl-2-ylmethyl)-ethyl-amide]
1 to 30 | > 30 | CCN(Cc1cc(C(F)(F)F)ccc1-c1cc(CC#N)ccc1OC)C(=O)OCc1ccccc1 [Compound 2-4, (5′-Cyanomethyl-2′-methoxy-4-trifluoromethyl-biphenyl-2-ylmethyl)-ethyl-carbamic acid benzyl ester]
< 0.3 | < 0.3 | CCN(Cc1cc(C(F)(F)F)ccc1-c1cc(Cc2nn[nH]n2)ccc1OC)C(=O)OCc1ccccc1 [Compound 2-5, Ethyl-[2′-methoxy-5′-(2H-tetrazol-5-ylmethyl)-4-trifluoromethyl-biphenyl-2-ylmethyl]-carbamic acid benzyl ester]
1 to 30 | 1 to 30 | CCN(Cc1cc(C(F)(F)F)ccc1-c1cc(CC(N)=O)ccc1OC)C(=O)OCc1ccccc1 [Compound 2-6, (5′-Carbamoylmethyl-2′-methoxy-4-trifluoromethyl-biphenyl-2-ylmethyl)-ethyl-carbamic acid benzyl ester]
1 to 30 | 1 to 30 | CCN(Cc1cc(C(F)(F)F)ccc1-c1cc(Cc2nn[nH]n2)ccc1OC)C(=O)C1CC1 [Compound 2-7, Cyclopropanecarboxylic acid ethyl-[2′-methoxy-5′-(2H-tetrazol-5-ylmethyl)-4-trifluoromethyl-biphenyl-2-ylmethyl]-amide]
1 to 30 | 1 to 30 | CCN(Cc1cc(C(F)(F)F)ccc1-c1cc(CC(N)=O)ccc1OC)C(=O)C1CC1 [Compound 2-8, Cyclopropanecarboxylic acid (5′-carbamoylmethyl-2′-methoxy-4-trifluoromethyl-biphenyl-2-ylmethyl)-ethyl-amide]
